The values below come from article PMC9264115, “Pd-catalyzed C–C and C–N cross-coupling reactions in 2-aminothieno[3,2-d]pyrimidin-4(3H)-one series for antiplasmodial pharmacomodulation” (RSC Advances, 2022).

In general, EC50 refers to the concentration that produces a half-maximal response. Broadly, the CC50 is the concentration at which the toxic effect on the cells reaches its halfway point. For orientation: melting point means the temperature of the solid-liquid transition.

The structures appear in SMILES notation. Read-outs that look alike come from different tables or passages of the source. Bounds are passed on as bounds.

Series [1] has as its system K1 culture-adapted P. falciparum strain. Also noted: method as in PMID 25791675. Conditions: K1 strain of P. falciparum; reference values; read-out: EC50 PfK1; cited from earlier work.
For series [2], the system named is HepG2 cell line. The settings on record: cited from earlier work.
Series [3] deals with K1 culture-adapted P. falciparum strain. The series can be described thus: Antiplasmodial evaluation, SYBR Green I fluorescence-based drug susceptibility test. In kind it is cell-based. Conditions: for EC50: Plasmodium falciparum, multi-resistant K1 strain of P. falciparum, 72 h incubation, three independent experiments, read-out: EC50 PfK1; for SI (selectivity index): from CC50 HepG2 and EC50 PfK1. As for the experimental part:
[…]. Parasitemia was maintained daily between 1 and 3%. The P. falciparum drug susceptibility test was carried out by comparing quantities of DNA in treated and control cultures of parasite in human erythrocytes according to a SYBR Green I fluorescence-based method[19] using a 96-well fluorescence plate reader. Compounds previously dissolved in DMSO (final concentration less than 0.5% v/v) were incubated in a total assay volume of 200 μL (RPMI, 2% hematocrit and 0.4% parasitemia) for 72 h in a humidified atmosphere (10% O2 and 5% CO2) at 37 °C in 96-well flat bottom plates. Duplicate assays were performed for each sample. After incubation, plates were frozen at […] for 24 h. Then, the frozen plates were thawed for 1 h at 37 °C. Fifteen μL of each sample were transferred to 96-well flat bottom non-sterile black plates (Greiner Bio-one, Kremsmünster, Austria), already containing 15 μL of the SYBR Green I lysis buffer (2X SYBR Green I, 20 mM Tris base pH 7.5, 20 mM EDTA, 0.008% w/v saponin, 0.08% w/v Triton X-100). […] Plates were incubated for 15 min at 37 °C and then read on a TECAN Infinite F-200 spectrophotometer with excitation and emission wavelengths at 485 and 535 nm, respectively.

Series [4] can be described thus: Cytotoxic evaluation, MTT assay. The settings on record: HepG2 cells, human HepG2 cell line, three independent experiments. It counts as cell-based. As for the experimental part:
The HepG2 cell line was maintained at 37 °C, 5% CO2, at 90% humidity in […] supplemented with 10% fetal bovine serum, 1% L-glutamine (200 mM), and penicillin (100 U per mL)/streptomycin (100 μg mL^−1) (complete RPMI medium). The cytotoxicity of the tested molecules on the HepG2 (hepatocarcinoma cell line purchased from ATCC, ref HB-8065) cell line was assessed according to the method of Mosmann[20] with slight modifications. Briefly, 5 × 10^3 cells in 100 μL of complete medium were inoculated into each well of 96-well plates and incubated at 37 °C in humidified 5% CO2. After 24 h incubation, 100 μL of medium with various product concentrations dissolved in DMSO (final concentration less than 0.5% v/v) were added and the plates were incubated for 72 h at 37 °C. Triplicate assays were performed for each sample. Each plate was then microscopically examined for possible precipitate formation before the medium was aspirated from the wells. Next, 100 μL of MTT (3-(4,5-dimethyl-2-thiazolyl)-2,5-diphenyl-2H-tetrazolium bromide) solution (0.5 mg mL^−1 in medium without FBS) was added to each well. Cells were incubated for 2 h at 37 °C. After this time, the MTT solution was removed and DMSO (100 μL) was added to dissolve the resulting blue formazan crystals. Plates were shaken vigorously (700 rpm) for 10 min. The absorbance was measured at 570 nm with 630 nm as a reference wavelength using a BIO-TEK ELx808 Absorbance Microplate Reader (LabX, Midland, ON, Canada). DMSO was used as a blank and doxorubicin (purchased from Sigma Aldrich) as a positive control. Cell viability was calculated as a percentage of control (cells incubated without the compound). […] CC50 values to represent the mean value calculated from three independent experiments.
Background: Tetrazolium assays rely on reduction of a dye to a coloured formazan, in cell work by metabolically active cells.

Series [5] in a line: Microsomal stability. Conditions: for half-life: CD-1, read-out: t1/2 (half-time, microsomal stability); for half-life / Clint (intrinsic clearance): in vitro, female mouse microsomes, 37 °C, pH 7.4. In kind it is in vitro ADME, mouse. As for the experimental part:
The tested product and propranolol, used as a reference, were incubated in duplicate (reaction mixture volume of 0.5 mL) with female mouse microsomes (CD-1, 20 mg mL; BD Gentest) at 37 °C in a 50 mM phosphate buffer, pH 7.4, in the presence of MgCl2 (5 mM), NADP (1 mM), glucose-6-phosphate dehydrogenase (G6PD) (0.4 U per mL), and glucose-6-phosphate (5 mM). For the estimation of the intrinsic clearance, 50 μL aliquots were collected at 0, 5, 10, 20, 30, and 40 min and the reaction was stopped with 4 volumes of acetonitrile (ACN) containing the internal standard. After centrifugation at 10 000×g for 10 min at 4 °C, the supernatants were conserved at 4 °C for immediate analysis or placed at −80 °C in case of postponement of the analysis. Controls (time zero and final time point) in triplicate were prepared by the incubation of the internal standard with microsomes denatured by acetonitrile. The LC-MS system used for this study was a Waters Acquity I-Class/Xevo TQD equipped with a Waters Acquity BEH C18 column, 50 by 2.1 mm, 1.7 μm. The mobile phases were 10 mM ammonium acetate (mobile phase A) and acetonitrile with 0.1% formic acid (mobile phase B). The injection volume was 1 μL, and the flow rate was 600 μL min^−1. Chromatographic analysis, with a total duration of 4 min, was made with the following gradient: 0 < t < 0.2 min, 2% mobile phase B; 0.2 < t < 2 min, linear increase to 98% mobile phase B; 2 < t < 2.5 min, 98% mobile phase B; 2.5 < t < 2.6 min, linear decrease to 2% mobile phase B; 2.6 < t < 4 min, 2% mobile phase B. The quantification of each compound was obtained by converting the average of the ratios of the analyte/internal standard surfaces to the percentage of consumed product. The ratio of the control at t0 corresponded to 0% of the product consumed. The calculation of the half-life (t1/2) of each compound in the presence of microsomes was carried out according to the equation t1/2 = (ln2)/k, where k is the first-order degradation constant (the slope of the logarithm of the compound concentration versus incubation time). The intrinsic clearance in vitro (Clint, expressed in mlmin^−1mg) was calculated according to the equation Clint = (dose/AUC∞)/[microsomes], where dose is the initial concentration of the product in the sample, AUC∞ is the area under the concentration–time curve extrapolated to infinity, and [microsomes] is the microsome concentration expressed in mg μL^−1.

[6] abbreviates: read-out: CC50 HepG2, human HepG2 cell line, reference values.

As to `O=C1C(O)=C([C@H]2CC[C@H](c3ccc(Cl)cc3)CC2)C(=O)c2ccccc21` [Atovaquone, atovaquone], the EC50 in series [1] is 0.0013 µM. The CC50 in series [2] (setting [6]) is more than 15.6 µM.
For `CCN(CC)CCCC(C)Nc1ccnc2cc(Cl)ccc12` (stereo not shown) [Chloroquine, chloroquine], the EC50 in series [1] is 0.5 µM.
On to `CC(C)(C)Nc1nc2cc(N3CCCCC3)sc2c(=O)[nH]1` [Compound 1g, 2-tert-Butylamino-6-(piperidin-1-yl)thieno[3,2-d]pyrimidin-4(3H)-one], for which, in series [3], the EC50 was 0.77 ± 0.13 µM. In addition, in series [4], the CC50 at 72 h is 33.9 ± 1.4 µM. Moreover, in series [5], the half-life is 40 min and the “Clint (intrinsic clearance)” value is recorded as 42 μLmin^−1mg. Further, the “improvement in the half-time versus M1” value in series [5] (mouse microsomes, piperidine moiety (1g) vs tolyl moiety (M1)) is “more than 3 fold”.
`CC(C)(C)Nc1nc2cc(-c3ccc(N4CCOCC4)cc3)sc2c(=O)[nH]1` [Compound 4g, 2-tert-Butylamino-6-[4-(morpholin-4-yl)phenyl]thieno[3,2-d]pyrimidin-4(3H)-one] showed a melting point of more than 300 °C. Besides, in series [3], the EC50 stood at 2.4 ± 0.9 µM and the “SI (selectivity index)” value was 3.3. Further, in series [4], the CC50 at 72 h stood at 7.9 ± 1.3 µM.
`CSc1ccc(-c2cc3nc(NC(C)(C)C)[nH]c(=O)c3s2)cc1` [Compound 4j, 2-tert-Butylamino-6-[4-(methylsulfanyl)phenyl]thieno[3,2-d]pyrimidin-4(3H)-one] registered a melting point of 272 to 274 °C. Also, in series [3], the EC50 amounted to 1 ± 0.3 µM and the “SI (selectivity index)” value was more than 12.5. Also, the CC50 at 72 h in series [4] was more than 12.5 µM.
As for `CC(C)(C)Nc1nc2cc(-c3ccc(S(N)(=O)=O)cc3)sc2c(=O)[nH]1` [Compound 4l, 4-(2-tert-Butylamino-4-oxo-3,4-dihydrothieno[3,2-d]pyrimidin-6-yl)benzenesulfonamide], the melting point was more than 300 °C. In series [3], the concentration for a half-maximal effect (EC50) is more than 12.5 µM. The CC50 at 72 h in series [4] is more than 6.25 µM.
Turning to `CC(C)(C)Nc1nc2cc(-c3ccc(S(=O)(=O)N4CCOCC4)cc3)sc2c(=O)[nH]1` [Compound 4m, 2-tert-Butylamino-6-[4-(morpholin-4-ylsulfonyl)phenyl]thieno[3,2-d]pyrimidin-4(3H)-one], the melting point was more than 300 °C. Further, in series [3], the EC50 is 5.1 ± 2.6 µM and the “SI (selectivity index)” value is more than 2.5. The CC50 at 72 h in series [4] was more than 12.5 µM.
In turn, `CC(C)(C)Nc1nc2cc(-c3cnc(N4CCOCC4)nc3)sc2c(=O)[nH]1` [Compound 4n, 2-tert-Butylamino-6-[2-(morpholin-4-yl)pyrimidin-5-yl]thieno[3,2-d]pyrimidin-4(3H)-one] registered a melting point of more than 300 °C. For the same compound, in series [3], the EC50 was found to be 2.1 ± 0.6 µM and the “SI (selectivity index)” value came to 12.6. In addition, the midpoint of cytotoxicity in series [4], the CC50 at 72 h, lay at 26.4 ± 4.6 µM.
In turn, `CN1CCN(c2ncc(-c3cc4nc(NC(C)(C)C)[nH]c(=O)c4s3)cn2)CC1` [Compound 4o, 2-tert-Butylamino-6-[2-(4-methylpiperazin-1-yl)pyrimidin-5-yl]thieno[3,2-d]pyrimidin-4(3H)-one] returned a melting point of 289 to 291 °C. Also, in series [3], the EC50 is 4.4 ± 1 µM and the “SI (selectivity index)” value was 2.5. Besides, the CC50 at 72 h in series [4] came to 11.2 ± 1.3 µM.
In turn, `CC(C)(C)Nc1nc2cc(-c3ccc(N)cc3)sc2c(=O)[nH]1` [Compound 4p, 6-(4-aminophenyl)-2-tert-butylaminothieno[3,2-d]pyrimidin-4(3H)-one] showed a melting point of 259 to 261 °C. In series [3], the EC50 came out at 3.5 ± 1.2 µM and the “SI (selectivity index)” value is 0.7. This compound had a CC50 at 72 h in series [4] of 2.5 ± 1 µM.
`CC(=O)Nc1ccc(-c2cc3nc(NC(C)(C)C)[nH]c(=O)c3s2)cc1` [Compound 4r, N-[4-(2-tert-butylamino-4-oxo-3,4-dihydrothieno[3,2-d]pyrimidin-6-yl)phenyl]acetamide] returned a melting point of more than 300 °C. In series [3], the EC50 came to 3.9 ± 1.1 µM and the “SI (selectivity index)” value was less than 0.1. Also, half-maximal cytotoxicity in series [4] (CC50 at 72 h) was put at 0.16 ± 0.04 µM.
The matching figures for `CC(C)(C)Nc1nc2cc(-c3ccc(S(C)(=N)=O)cc3)sc2c(=O)[nH]1` (stereo not shown) [Compound 4s, 2-tert-Butylamino-6-[4-(methylsulfonimidoyl)phenyl]thieno[3,2-d]pyrimidin-4(3H)-one]: 251 to 253 °C, more than 12.5 µM, less than 5.1 and 63.3 ± 14.6 µM.
As to `Cc1ccc(-c2cc3nc(NC(C)(C)C)[nH]c(=O)c3s2)cc1` [Compound M1, gamhepathiopine, reference compound], in series [5], the half-life is 11 min and the “Clint (intrinsic clearance)” value turned out to be 240 μLmin^−1mg. Also, in series [1], the EC50 was 0.045 µM. The cytotoxic concentration (CC50) in series [2] (setting [6]) was 24 µM.
Take `COc1cccc2c1C(=O)c1c(O)c3c(c(O)c1C2=O)C[C@@](O)(C(=O)CO)C[C@@H]3O[C@H]1C[C@H](N)[C@H](O)[C@H](C)O1` [Doxorubicine, doxorubicine]: the 50% cytotoxic concentration (CC50) in series [2] was 0.2 µM.
For `C[C@H]1c2cccc(O)c2C(=O)C2=C(O)[C@]3(O)C(=O)C(C(N)=O)=C(O)[C@@H](N(C)C)[C@@H]3[C@@H](O)[C@@H]21` [Doxycycline, doxycycline], the EC50 in series [1] was 5 µM. Besides, in series [2] (setting [6]), the half-maximal cytotoxic concentration (CC50) was 20 µM.
In the case of `Cc1ccc(-c2cc3nc(NC(C)(C)C)[nH]c(=O)c3s2)cc1` [M1 (free base), gamhepathiopine], in series [1], the EC50 is 0.2 µM. In addition, the cytotoxic concentration (CC50) in series [2] (setting [6]) was 25.6 µM.
